{"source": "paper PMC1794076", "about": "“Bioinorganic Chemistry in Thyroid Gland: Effect of Antithyroid Drugs on Peroxidase-Catalyzed Oxidation and Iodination Reactions” (Bioinorganic Chemistry and Applications, 2006)", "key": {"lactoperoxidase (LPO) [1]": {"molecular_target": "lactoperoxidase (LPO)", "parameters": "method as in PMID 16855736", "details": "cited from earlier work"}, "lactoperoxidase (LPO) [2]": {"tested_on": "lactoperoxidase (LPO)", "parameters": "method as in PMID 16248663", "details": "cited from earlier work"}, "[3]": {"parameters": "method as in earlier work", "details": "cited from earlier work"}, "[4]": {"assay": "Glutathione peroxidase (GPx)-like reduction of H2O2 in the presence of thiols (GSH)", "type": "biochemical", "details": "catalytic reduction of H2O2 with thiols such as GSH", "source_text": "Doerge and others have shown that mammalian peroxidases including LPO may activate the antithyroid drugs through S-oxygenation to produce the corresponding sulfoxides or sulfinic acids. They have also shown that the suicide inactivation of LPO and TPO by MMI proceeds through the S-oxygenation of the thione moiety to form a reactive sulfinic acid, which binds covalently to the prosthetic heme and irreversibly blocks enzyme activity. Given the higher reactivity of selenium compounds as compared with the sulfur derivatives toward oxidation, it is possible that the facile oxidation of the selenium compounds may lead to an efficient inhibition of LPO activity. […] The LPO activity was measured several times by increasing the time for the reaction of the test compounds with H2O2. Remarkably, MSeI (2) inhibited the enzyme within few seconds even at lower concentrations, which can be ascribed to the facile oxidation of the reactive selenolate group in 2 (MSeI) by H2O2 or by the oxidized enzyme. […] The initial rates (v0) derived from various concentrations of H2O2 were plotted against the concentration of H2O2. […] The reduction of H2O2 by 2 may become more efficient in the presence of suitable thiols such as GSH because this process may constitute a redox cycle involving a catalytic reduction of H2O2 (glutathione peroxidase (GPx) activity). […]"}, "[5]": {"parameters": "method as in PMID 14995183, PMID 16248663", "details": "oxidizes in air to the corresponding diselenide; cited from earlier work"}}, "note": "Like-named read-outs stand apart in the source and are kept apart here."}
{"compound": "Cn1cc[nH]c1=S", "note": "[MMI, methimazole]", "values": [{"measurement": "IC50", "setting": "lactoperoxidase (LPO) [1]; HPLC assay, KI, L-tyrosine, H2O2, LPO, fixed H2O2 concentration, read-out: IC50, inhibition of LPO-catalyzed iodination of L-tyrosine", "result": 5.2, "unit": "µM"}, {"measurement": "Recovery of LPO activity at lower compound and higher H2O2 concentration", "setting": "lactoperoxidase (LPO) [2]; 10 μM compound, 230 μM H2O2", "result": "could not be recovered"}, {"measurement": "LPO activity in the presence of compound", "setting": "lactoperoxidase (LPO) [2]; 40 μM compound, ABTS oxidation, Figure 3", "result": "completely inhibited"}, {"measurement": "Recovery of LPO activity by increasing H2O2 concentration", "setting": "lactoperoxidase (LPO) [2]; 40 μM compound, initial rates vs H2O2 concentration, LPO 6.5 nM, Figure 3", "result": "could not be recovered"}, {"measurement": "IC50", "setting": "lactoperoxidase (LPO) [2]; LPO-catalyzed oxidation of ABTS with H2O2, concentration causing 50% inhibition, at least three independent experiments", "result": "7 ± 1.1", "unit": "µM"}, {"measurement": "hydrogen-bond (hard) basicity pk HB value", "setting": "[3]", "result": 2.11}]}
{"compound": "CCCc1cc(=O)[nH]c(=S)[nH]1", "note": "[PTU, 6-n-propyl-2-thiouracil]", "values": [{"measurement": "hydrogen-bond (hard) basicity pk HB value", "setting": "[3]", "result": "~1.32"}]}
{"compound": "Cn1ccnc1[Se][Se]c1nccn1C", "note": "[compound 8]", "values": [{"measurement": "Inhibition of LPO-catalyzed iodination (in words)", "setting": "lactoperoxidase (LPO) [1]; identical conditions as the IC50 determination", "result": "did not show any noticeable inhibition"}, {"measurement": "Inhibition of LPO-catalyzed oxidation (in words)", "setting": "lactoperoxidase (LPO) [2]; identical experimental conditions as for the IC50 determination", "result": "does not show any noticeable inhibition"}]}
{"compound": "Cn1cc[nH]c1=[Se]", "note": "[MSeI]", "values": [{"measurement": "GPx activity (in words)", "setting": "[4]", "result": "high"}, {"measurement": "Stability of the zwitterionic form in air", "setting": "[5]", "result": "unstable"}]}
